Test results taken from patent publication US7884118B2, “1-cycloalkyl-5-iodotetrazoles” (LANXESS Deutschland GmbH, priority 2005, dated 2011).

Tests used:
Chaetomium globosum = assay: Minimum inhibitory concentration (MIC) against fungi, malt extract agar; assay type: cell-based; conditions: 336 h, 2 weeks at 28° C., 60 to 70% relative atmospheric humidity, read-out: Minimum inhibitory concentrations Chaetomium globosum
Protocol: (§1) In each case, the active compounds according to the invention, in concentrations of from 0.1 mg/l to 5000 mg/l, were added to an agar which had been prepared using malt extracts. The MIC was determined after 2 weeks of storage at 28° C. and 60 to 70% relative atmospheric humidity. The MIC is the lowest concentration of active compound at which there is no colonization by the microbial species used.

Penicillium brevicaule = assay: as above; assay type: cell-based; conditions: 336 h, 2 weeks at 28° C., 60 to 70% relative atmospheric humidity, read-out: Minimum inhibitory concentrations Penicillium brevicaule
Protocol: as §1

Aspergillus niger = assay: as above; assay type: cell-based; conditions: 336 h, 2 weeks at 28° C., 60 to 70% relative atmospheric humidity, read-out: Minimum inhibitory concentrations Aspergillus niger
Protocol: as §1

In the case of `Ic1nnnn1C1CCCC1` [Example 1, 1-Cyclopentyl-5-iodotetrazole], the melting point is reported as 119 °C, the MIC (Chaetomium globosum) is reported as less than 20 µg/mL and the MIC (Penicillium brevicaule) is reported as less than 20 µg/mL. The MIC (Aspergillus niger) was less than 20 µg/mL.
